The text below walks through data of PMC8987110, “The Nutraceutical Alliin From Garlic Is a Novel Substrate of the Essential Amino Acid Transporter LAT1 (SLC7A5)” (Frontiers in Pharmacology, 2022).

Test [1] has as its target T1, hLAT1 (LAT1, SLC7A5) (Homo sapiens, UniProt Q01650).
T1 construct: recombinant hLAT1 WT alone (no CD98/SLC3A2), expressed in E. coli Rosetta(DE3)pLysS, purified on HisTrap (His tag implied), reconstituted in proteoliposomes with cholesterol
Nature of the test: inhibition of [3H]-histidine uptake in proteoliposomes, Lineweaver-Burk. The test is classed as biochemical.

Test [2] addresses T1, hLAT1 (LAT1, SLC7A5). Put plainly: inhibition of [3H]-histidine uptake in proteoliposomes, dose-response. The test is classed as biochemical.

T1 sequence (Q01650 whole entry): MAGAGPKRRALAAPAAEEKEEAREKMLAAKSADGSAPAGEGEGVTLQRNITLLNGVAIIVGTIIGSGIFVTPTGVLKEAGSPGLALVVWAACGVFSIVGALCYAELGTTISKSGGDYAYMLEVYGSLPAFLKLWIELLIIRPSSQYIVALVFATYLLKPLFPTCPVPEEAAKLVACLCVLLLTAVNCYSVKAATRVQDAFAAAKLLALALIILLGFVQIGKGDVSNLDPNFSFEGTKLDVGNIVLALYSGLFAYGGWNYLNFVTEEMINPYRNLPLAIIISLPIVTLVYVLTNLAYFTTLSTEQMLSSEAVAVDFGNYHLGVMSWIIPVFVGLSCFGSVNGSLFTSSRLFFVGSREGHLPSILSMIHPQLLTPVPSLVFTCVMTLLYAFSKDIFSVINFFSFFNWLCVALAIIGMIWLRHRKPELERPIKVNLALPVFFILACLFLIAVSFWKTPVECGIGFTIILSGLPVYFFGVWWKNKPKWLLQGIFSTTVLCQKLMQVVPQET

As a reminder, the Ki is the equilibrium dissociation constant of an inhibitor or competing ligand from its target. The IC50 is the midpoint of a concentration-inhibition curve. A higher IC50 goes with weaker potency in that assay. As to `C=CC[S@+]([O-])C[C@H](N)C(=O)O` [alliin], the affinity on hLAT1 (LAT1, SLC7A5) [1] corresponds to a Ki of 50 ± 19 µM. For the same molecule, on hLAT1 (LAT1, SLC7A5) [2], inhibition was half-maximal at 79 ± 9 µM (IC50).
